# pIC50: −log10 of the molar value. Where a name gives a salt, the structure may show the parent alone.
# Biological target: T1, human HIF-PHD2 (Homo sapiens, UniProt Q9GZT9)
# T1 construct: FLAG-tagged full length PHD2 expressed in and purified from baculovirus-infected Sf9 cells; FLAG; made in house; host or cells: baculovirus-infected Sf9 cells
# Experiment: HIF-PHD2 inhibition: hydroxylation of HIF-1α peptide, time resolved fluorescence
# Assay type: biochemical
# Conditions: FLAG-tagged full length PHD2; 0.2 μM 2-oxoglutarate, 0.5 μM HIF-1α peptide
# Protocol: To each well of a 384-well plate, 1 μL of test compounds in DMSO (final concentration ranging from 0.3 nM to 10 μM) were added into 20 μl of assay buffer (50 mM Tris pH 7.4/0.01% Tween-20/0.1 mg/ml bovine serum albumin/10 μM ferrous sulfate/1 mM sodium ascorbate/20 μg/ml catalase) containing 0.15 μg/ml FLAG-tagged full length PHD2 expressed in and purified from baculovirus-infected Sf9 cells. After a 5 min preincubation at room temperature, the enzymatic reactions were initiated by the addition of 4 μL of substrates {final concentrations of 0.2 μM 2-oxoglutarate and 0.5 μM HIF-1α peptide biotinyl-DLDLEMLAPYIPMDDDFQL (SEQ ID NO: 1)}. After incubation for 45 minutes at room temperature, the reactions were terminated by the addition of a 25 μL quench/detection mix to a final concentration of 1 mM ortho-phenanthroline, 0.1 mM EDTA, 0.5 nM anti-(His)6 LANCE reagent (Perkin-Elmer Life Sciences), 100 nM AF647-labeled streptavidin (Invitrogen), and 2 μg/ml (His)6-VHL complex {S. Tan Protein Expr. Purif. 21, 224-234 (2001)} and the signals were developed for 30 minutes at room temperature. The ratio of time resolved fluorescence signals at 665 and 620 nm was determined, and percent inhibition was calculated relative to the high control samples (DMSO treated) run in parallel, after background subtraction.
# T1 sequence (Q9GZT9 whole entry): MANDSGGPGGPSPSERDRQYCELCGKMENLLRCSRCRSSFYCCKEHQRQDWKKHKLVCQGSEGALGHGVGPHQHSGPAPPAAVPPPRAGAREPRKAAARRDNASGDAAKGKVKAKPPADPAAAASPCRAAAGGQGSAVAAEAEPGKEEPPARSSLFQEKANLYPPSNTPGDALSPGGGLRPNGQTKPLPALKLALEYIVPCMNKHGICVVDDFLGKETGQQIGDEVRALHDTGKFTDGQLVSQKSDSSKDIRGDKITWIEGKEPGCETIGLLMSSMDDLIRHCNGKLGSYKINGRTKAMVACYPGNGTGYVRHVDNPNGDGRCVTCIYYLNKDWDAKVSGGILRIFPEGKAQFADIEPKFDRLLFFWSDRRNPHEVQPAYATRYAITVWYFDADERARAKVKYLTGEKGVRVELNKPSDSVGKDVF
row,Structure (SMILES),pIC50
1,"COc1ccc(-c2ccc(C(C)(C)NC(=O)c3cnc(C(=O)NCC(C)C(=O)O)nc3O)cn2)cc1 (single isomer, unassigned) [Example 19, (R) or (S)-3-(4-hydroxy-5-((2-(6-(4-methoxyphenyl)pyridin-3-yl)propan-2-yl)carbamoyl)pyrimidine-2-carboxamido)-2-methylpropanoic acid]",8.55
2,"CC(CNC(=O)c1ncc(C(=O)NC(C)(C)c2ccc(-c3ccc(C(F)(F)F)cc3)cc2)c(O)n1)C(=O)O (single isomer, unassigned) [Example 20, (R) or (S)-3-(4-hydroxy-5-((2-(4′-(trifluoromethyl)-[1,1′-biphenyl]-4-yl)propan-2-yl)carbamoyl)pyrimidine-2-carboxamido)-2-methylpropanoic acid]",8.09
3,"CC(CNC(=O)c1ncc(C(=O)NC(C)(C)c2ccc(-c3cccc4cnccc34)cc2)c(O)n1)C(=O)O (single isomer, unassigned) [Example 21, (R) or (S)-2-((2-carboxypropyl)carbamoyl)-6-hydroxy-5-((2-(4-(isoquinolin-5-yl)phenyl)propan-2-yl)carbamoyl)pyrimidin-1-ium formate]",8.32
4,"CC(CNC(=O)c1ncc(C(=O)NC(C)(C)c2ccc(-c3cccnc3)cc2)c(O)n1)C(=O)O (single isomer, unassigned) [Example 22, (R) or (S)-2-((2-carboxypropyl)carbamoyl)-6-hydroxy-5-((2-(4-(pyridin-3-yl)phenyl)propan-2-yl)carbamoyl)pyrimidin-1-ium formate]",8.52
5,"Cc1cc(C#N)ccc1-c1ccc(C(C)(C)NC(=O)c2cnc(C(=O)NCC(C)C(=O)O)nc2O)cc1 (single isomer, unassigned) [Example 23, (R) or (S)-3-(5-((2-(4′-cyano-2′-methyl-[1,1′-biphenyl]-4-yl)propan-2-yl)carbamoyl)-4-hydroxypyrimidine-2-carboxamido)-2-methylpropanoic acid]",7.92
6,"CC(CNC(=O)c1ncc(C(=O)NC(C)(C)c2ccc(-c3ccc(F)cc3)cc2)c(O)n1)C(=O)O (single isomer, unassigned) [Example 24, (R) or (S)-3-(5-((2-(4′-fluoro-[1,1′-biphenyl]-4-yl)propan-2-yl)carbamoyl)-4-hydroxypyrimidine-2-carboxamido)-2-methylpropanoic acid]",8.32
7,"CC(CNC(=O)c1ncc(C(=O)NC(C)(C)c2ccc(-c3ccc(OC(F)(F)F)cc3)cc2)c(O)n1)C(=O)O (single isomer, unassigned) [Example 25, (R) or (S)-3-(4-hydroxy-5-((2-(4′-(trifluoromethoxy)-[1,1′-biphenyl]-4-yl)propan-2-yl)carbamoyl)pyrimidine-2-carboxamido)-2-methylpropanoic acid]",7.89
8,"COc1ccc(-c2ccc(C(C)(C)NC(=O)c3cnc(C(=O)NCC(C)C(=O)O)nc3O)cc2)cn1 (single isomer, unassigned) [Example 26, (R) or (S)-2-((2-carboxypropyl)carbamoyl)-6-hydroxy-5-((2-(4-(6-methoxypyridin-3-yl)phenyl)propan-2-yl)carbamoyl)pyrimidin-1-ium chloride]",8.47
9,"CC(CNC(=O)c1ncc(C(=O)NC(C)(C)c2ccc(-c3cc[nH]n3)cc2)c(O)n1)C(=O)O (single isomer, unassigned) [Example 27, (R) or (S)-5-((2-(4-(1H-pyrazol-3-yl)phenyl)propan-2-yl)carbamoyl)-2-((2-carboxypropyl)carbamoyl)-6-hydroxypyrimidin-1-ium formate]",8.24
10,"CC(CNC(=O)c1ncc(C(=O)NC2(c3ccc(-c4cccc5cnccc45)cc3)CC2)c(O)n1)C(=O)O (single isomer, unassigned) [Example 31, (R) or (S)-2-((2-carboxypropyl)carbamoyl)-6-hydroxy-5-((1-(4-(isoquinolin-5-yl)phenyl)cyclopropyl)carbamoyl)pyrimidin-1-ium formate]",8.00
11,"CC(CNC(=O)c1ncc(C(=O)NC2(c3ccc(-c4ccc(F)cc4)cc3)CC2)c(O)n1)C(=O)O (single isomer, unassigned) [Example 32, (R) or (S)-3-(5-((1-(4′-fluoro-[1,1′-biphenyl]-4-yl)cyclopropyl)carbamoyl)-4-hydroxypyrimidine-2-carboxamido)-2-methylpropanoic acid]",7.92
12,"COc1ccc(-c2ccc(C3(NC(=O)c4cnc(C(=O)NCC(C)C(=O)O)nc4O)CC3)cc2)cn1 (single isomer, unassigned) [Example 33, (R) or (S)-2-((2-carboxypropyl)carbamoyl)-6-hydroxy-5-((1-(4-(6-methoxypyridin-3-yl)phenyl)cyclopropyl)carbamoyl)pyrimidin-1-ium chloride]",8.37
13,"CNc1ccc(C(NC(=O)c2cnc(C(=O)NCCC(=O)O)nc2O)c2ccc(OC)cc2)cn1 (single isomer, unassigned) [Example 34, (R) or (S)-3-(4-hydroxy-5-(((4-methoxyphenyl)(6-(methylamino)pyridin-3-yl)methyl)carbamoyl)pyrimidine-2-carboxamido)propanoic acid]",9.24
14,"CC(O)(CNC(=O)c1ncc(C(=O)NC(c2ccccc2)c2ccccc2)c(O)n1)C(=O)O (stereo not drawn) [Example 3, 3-(5-(Benzhydrylcarbamoyl)-4-hydroxypyrimidine-2-carboxamido)-2-hydroxy-2-methylpropanoic acid]",8.39
15,"O=C(NCC(O)C(=O)O)c1ncc(C(=O)NC(c2ccccc2)c2ccccc2)c(O)n1 (stereo not drawn) [Example 5, 3-(5-(benzhydrylcarbamoyl)-4-hydroxypyrimidine-2-carboxamido)-2-hydroxypropanoic acid]",9.05
16,"CC(C)(NC(=O)c1cnc(C(=O)NC[C@@H](O)C(=O)O)nc1O)c1ccc(C(F)(F)F)cc1 [Example 11, (R)-2-hydroxy-3-(4-hydroxy-5-((2-(4-(trifluoromethyl)phenyl)propan-2-yl)carbamoyl)pyrimidine-2-carboxamido)propanoic acid]",8.82
17,COc1ccc(C(NC(=O)c2cnc(C(=O)NCCC(=O)O)nc2O)c2ccccc2)cc1 (stereo not drawn) [Example 38],9.05

# Further lines, results first:
row,pIC50,Structure (SMILES)
1,8.17,"N#Cc1ccc(C(NC(=O)c2cnc(C(=O)NC[C@@H](O)C(=O)O)nc2O)c2ccccc2)cc1 (single isomer, unassigned) [Example 8]"
2,7.57,"N#Cc1ccc(C(NC(=O)c2cnc(C(=O)NC[C@@H](O)C(=O)O)nc2O)c2ccccc2)cc1 (single isomer, unassigned) [Example 9]"
3,7.82,"COc1ccc(C(NC(=O)c2cnc(C(=O)NCC(C)C(=O)O)nc2O)c2ccc(OC)cc2)cc1 (single isomer, unassigned) [Example 18, (R) or (S)-3-(5-((bis(4-methoxyphenyl)methyl)carbamoyl)-4-hydroxypyrimidine-2-carboxamido)-2-methylpropanoic acid]"
4,8.23,"CC(CNC(=O)c1ncc(C(=O)NC(C)(C)c2ccc(-c3ccc(Cl)cc3)cc2)c(O)n1)C(=O)O (single isomer, unassigned) [Example 28, (R) or (S)-3-(5-((2-(4′-chloro-[1,1′-biphenyl]-4-yl)propan-2-yl)carbamoyl)-4-hydroxypyrimidine-2-carboxamido)-2-methylpropanoic acid]"
5,7.89,"CC(CNC(=O)c1ncc(C(=O)NC2(c3ccc(-c4ccc(Cl)cc4)cc3)CC2)c(O)n1)C(=O)O (single isomer, unassigned) [Example 30, (R) or (S)-3-(5-((1-(4′-chloro-[1,1′-biphenyl]-4-yl)cyclopropyl)carbamoyl)-4-hydroxypyrimidine-2-carboxamido)-2-methylpropanoic acid]"
6,8.17,"COc1ccc([C@@H](NC(=O)c2cnc(C(=O)NC[C@@H](O)C(=O)O)nc2O)c2ccccc2)cc1 [Example 10, (R)-2-Hydroxy-3-(4-hydroxy-5-(((S)-(4-methoxyphenyl) (phenyl)methyl)carbamoyl)pyrimidine-2-carboxamido)propanoic acid]"
7,8.06,"COc1ccc([C@H](NC(=O)c2cnc(C(=O)NC[C@@H](O)C(=O)O)nc2O)c2ccccc2)cc1 [Example 12, (R)-2-hydroxy-3-(4-hydroxy-5-(((R)-(4-methoxyphenyl)(phenyl)methyl)carbamoyl)pyrimidine-2-carboxamido)propanoic acid]"
8,8.31,CC(CNC(=O)c1ncc(C(=O)NC(c2ccc(Cl)cc2)c2ccc(Cl)cc2)c(O)n1)C(=O)O (stereo not drawn) [Example 13]
9,9.05,"COc1ccc([C@@H](NC(=O)c2cnc(C(=O)NCCC(=O)O)nc2O)c2ccc(Cl)cc2)cc1 [Example 35, (R)-3-(5-(((4-chlorophenyl)(4-methoxyphenyl)methyl)carbamoyl)-4-hydroxypyrimidine-2-carboxamido)propanoic acid]"
10,9.05,"O=C(O)CCNC(=O)c1ncc(C(=O)NC(c2ccc(Cl)cc2)c2ccc(C(F)(F)F)cc2)c(O)n1 (stereo not drawn) [Example 40, 3-(5-(((4-chlorophenyl)(4-(trifluoromethyl)phenyl)methyl)carbamoyl)-4-hydroxypyrimidine-2-carboxamido)propanoic acid]"

# From patent US20170247336A1 (MERCK SHARP & DOHME CORP., priority 2014, published 2017)
